Values joined by “and” are separate entries in the source; they are usually repeats but may differ in a detail not shown here. Identical values can stand only once.
Legend:
[1] = Suppression of methyl mercaptan (Example 12, GC-PFPD); details: test material 0.2%, malodor material 10 ppm, room temperature 2 hours, triplicate
Protocol: 100 μl of 0.01%(w/v) of test malodor material in ethanol, 2 μl of neat flavor oil and 900 μl of deionized water were added into a 4 ml vial and left to sit at room temperature for 2 hours. As a control, ethanol was added instead of the malodor reducing compound. The final concentration of test material and malodor material are 0.2% and 10 ppmm, respectively. 3 ml of ethanol was added into the resulting vial and the thiol level was analyzed using GC-PFPD as described above. Each material was tested in triplicate. Malodor suppression was calculated as described in the example 1 above.

[2] = Methyl mercaptan chemical suppression by Group A and Group B compounds (GC-PFPD); details: test material 200 ppm, malodor material 10 ppm, room temperature 2 hours, ethanol/deionized water
Protocol: 2 μl of 0.5%(w/v) of sodium methoxide in deionized water, 20 μl of 1% (w/v) test malodor eliminating material in ethanol, 80 μl of ethanol, and 900 μl of deionized water were added into a 2 ml GC vial, left to sit at room temperature for 2 hours, and analyzed using Multipurpose sampler-GC-PFPD (Gas Chromatography-Pulsed Flame Photometric Detector) (GC-PFPD)MPS2 (Gerstel)—GC; 6890N (Agilent)—PFPD; model 5380 (OI Analytical). As a control, ethanol was added instead of test malodor eliminating materials. The final concentration of test OE material and malodor material are 200 ppm and 10 ppmm, respectively. Malodor suppression was calculated as follows: Malodor Suppression (%)=(GC area of control sample−GC area of test_sample)/GC area of control sample×100

[3] = Methyl mercaptan suppression by Group A and Group B materials alone and combined (synergistic or additive activity); details: in ethanol, room temperature 2 hours
Protocol: The synergistic or additive activity of methyl mercaptan inhibition of malodor eliminating materials was tested. 5-40 μl of 1% (w/v) test OE materials in ethanol was placed into a 2 ml GC vial. Ethanol was added into this vial up to 1000 μl. 2 μl of 0.5%(w/v) of sodium methoxide in deionized water was added into the resulting vial, left to sit at room temperature for 2 hours, and analyzed using Multipurpose sampler-GC-PFPD. As a control, ethanol was added instead of test OE materials. Malodor suppression was calculated as described in Example 1 above.

[4] = Furfuryl mercaptan chemical suppression by malodor eliminating materials (GC-PFPD); details: OE material 0.2%, malodor material 10 ppm, room temperature 2 hours, triplicate
Protocol: (§1) The selected OE materials were tested for propyl, allyl, and furfuryl mercaptan suppression. 100 μl of 0.01%(w/v) of test malodor material in ethanol, 2 μl of neat flavor oil and 900 μl of deionized water were added into a 4 ml vial and left to sit at room temperature for 2 hours. As a control, ethanol was added instead of test flavor materials. The final concentration of test OE material and malodor material are 0.2% and 10 ppm, respectively. 3 ml of ethanol was added into the resulting vial and the thiol level was analyzed using GC-PFPD. Each material was tested in triplicate. Malodor suppression was calculated as described in the example 1 above.

[5] = Propyl mercaptan chemical suppression by malodor eliminating materials (GC-PFPD); details: OE material 0.2%, malodor material 10 ppm, room temperature 2 hours, triplicate
Protocol: as §1

[6] = Allyl mercaptan chemical suppression by malodor eliminating materials (GC-PFPD); details: OE material 0.2%, malodor material 10 ppm, room temperature 2 hours, triplicate
Protocol: as §1

Compound | methyl mercaptan suppression (%) [1] [%] | methyl mercaptan suppression (%) [2] [%] | methyl mercaptan suppression (%) B alone ([3]; Group B level 400 ppm) | Malodor reduction (%) furfuryl mercaptan [4] [%] | Malodor reduction (%) propyl mercaptan [5] [%] | Malodor reduction (%) allyl mercaptan [6] [%] | methyl mercaptan suppression (%) A alone ([3]; Group A level 200 ppm) [%] | methyl mercaptan suppression (%) A alone ([3]; Group A level 50 ppm) | methyl mercaptan suppression (%) A alone ([3]; Group A level 50 ppm, listed as METHYL HEP CARB) | methyl mercaptan suppression (%) A alone ([3]; Group A level 200 ppm, listed as PIPERITONED) [%] | methyl mercaptan suppression (%) B alone ([3]; Group B level 100 ppm)
C=CCc1ccc(O)c(OC)c1 [EUGENOL, eugenol] | 78 | 46 | 12% and 14% and 15% and 16% | 80 | 44 | 63 | – | – | – | – | –
C=C(C)[C@@H]1CC=C(C)C(=O)C1 [CARVONE-L, carvone-l] | 60 | 14 | – | 27 | <20 | <20 | 12 | – | – | – | –
C/C=C/C(=O)C1=C(C)C=CCC1(C)C [DAMASCENONE, damascenone] | 81 | 100 | – | 67 | 49 | 67 | – | 28% and 17% | – | – | –
CCCCCC#CC(=O)OC [METHYL HEPTIN CARE, methyl heptin carbonate] | 80 | 92 | – | 69 | 44 | 63 | – | – | 67% and 53% | – | –
piperitone-d [[…]] | 45 | 37 | – | 64 | <20 | 51 | 8 | – | – | 12 | –
CC/C=C\CCOC(C)=O [HEXENYL CIS 3 ACETATE, cis-3-hexenyl acetate] | 38 | 60 | – | 28 | <20 | <20 | – | – | – | – | 22% and 27%
